From article PMC6101487 (2018)

Key:
Experiment in all cases: fluorescence scan of RNA array
Conditions in all cases: 6 mM MgCl2, 20 mM NaCl; 40 mM Tris pH 7.8, 20 °C, 16 h; 20 μM malachite green
[1] = test system: MGsa (malachite green aptamer–streptavidin aptamer conjugate) (RNA, aptamer) GGAUCCCGACUGGCGAGAGCCAGGUAACGAAUGGAUCCACACACACACACACACACACGCAUGCAUACCGACCAGAAUCAUGCAAGUGCGUAAGAUAGUCGCGGGCCGGGAUGCAUGC
[2] = test system: MicAsa (RNA, other) GGGGAAAGACGCGCAUUUGUUAUCAUCAUCCCUGAAUUCAGAGAUGAAAUUUUGGCCACUCACGAGUGGCCUUUUACACACACACACACACACACGCAUGCAUACCGACCAGAAUCAUGCAAGUGCGUAAGAUAGUCGCGGGCCGGGAUGCAUGC
[3] = test system: DsrAsa (RNA, other) GGGAACACAUCAGAUUUCCUGGUGUAACGAAUUUUUUAAGUGCUUCUUGCUUAAGCAAGUUUCAUCCCGACCCCCUCAGGGUCGGGAUUUUUUUUUUUUUUUUUUUUUUAGAGACCGACCAGAAUCAUGCAAGUGCGUAAGAUAGUCGCGGGCCGGGCUCUA
[4] = test system: RprAsa (RNA, other) GGGACGGUUAUAAAUCAACAUAUUGAUUUAUAAGCAUGGAAAUCCCCUGAGUGAAACAACGAAUUGCUGUGUGUAGUCUUUGCCCAUCUCCCACGAUGGGCUUUUUUUUUUUUUUUUUUUUUUUUUUGUGUGACCGACCAGAAUCAUGCAAGUGCGUAAGAUAGUCGCGGGCCGGGCACAC
[5] = test system: ompAsa (RNA, mRNA element) GGGCCAGGGGUGCUCGGCAUAAGCCGAAGAUAUCGGUAGAGUUAAUAUUGAGCAGAUCCCCCGGUGAAGGAUUUAACCGUGUUAUCUCGUUGGAGAUAUUCAUGGCGUAUUUUGGAUGAUAACGAGGCGCAAAAAAUGAAAAAGACAGCUAUCGCGAUUGCAGUGGCAAAUAAUAAUAAUAAUAAUAAUAUGCAUGCACCGACCAGAAUCAUGCAAGUGCGUAAGAUAGUCGCGGGCCGGGGCAUGCAU
[6] = test system: rpoSsa (RNA, mRNA element) GGGUUCUGAGUCUUCGGGUGAACAGAGUGCUAACAAAAUGUUGCCGAACAACAAGCCAACUGCGACCACGGUCACAGCGCCUGUAACGGUACCAACAGCAAGCACAACCGAGCCGACUGUCAGCAGUACAUCAACCAGUACGCCUAUCUCCACCUGGACCUGGCCGACUGAGGGCAAAGUGAUCGAAACCUUUGGCGCUUCUGAGGGGGGCAACAAGGGGAUUGAUAUCGCAGGCAGCAAAGGACAGGCAAUUAUCGCGACCGCAGAUGGCCGCGUUGUUUAUGCUGGUAACGCGCUGCGCGGCUACGGUAAUCUGAUUAUCAUCAAACAUAAUGAUGAUUACCUGAGUGCCUACGCCCAUAACGACACAAUGCUGGUCCGGGAACAACAAGAAGUUAAGGCGGGGCAAAAAAUAGCGACCAUGGGUAGCACCGGAACCAGUUCAACACGCUUGCAUUUUGAAAUUCGUUACAAGGGGAAAUCCGUAAACCCGCUGCGUUAUUUGCCGCAGCGAUAAAUCGGCGGAACCAGGCUUUUGCUUGAAUGUUCCGUCAAGGGAUCACGGGUAGGAGCCACCUUAUGAGUCAGAUUUUUUUUUUUUUUUUUUAUGCAUGCACCGACCAGAAUCAUGCAAGUGCGUAAGAUAGUCGCGGGCCGGGGCAUGCAU

binding [1]: yes
binding [2]: no
binding [3]: no
binding [4]: no
binding [5]: no
binding [6]: no
Structure (SMILES): CN(C)c1ccc(C(=C2C=CC(=[N+](C)C)C=C2)c2ccccc2)cc1
